{
  "source": "patent US20030083381A1",
  "about": "“Hair growth or hair formation controlling agents” (priority 2000, published 2003)",
  "key": {"EP4 Receptor": {"target": "EP4 Receptor (Oryctolagus cuniculus, UniProt Q28691)", "sequence (Q28691 whole entry)": "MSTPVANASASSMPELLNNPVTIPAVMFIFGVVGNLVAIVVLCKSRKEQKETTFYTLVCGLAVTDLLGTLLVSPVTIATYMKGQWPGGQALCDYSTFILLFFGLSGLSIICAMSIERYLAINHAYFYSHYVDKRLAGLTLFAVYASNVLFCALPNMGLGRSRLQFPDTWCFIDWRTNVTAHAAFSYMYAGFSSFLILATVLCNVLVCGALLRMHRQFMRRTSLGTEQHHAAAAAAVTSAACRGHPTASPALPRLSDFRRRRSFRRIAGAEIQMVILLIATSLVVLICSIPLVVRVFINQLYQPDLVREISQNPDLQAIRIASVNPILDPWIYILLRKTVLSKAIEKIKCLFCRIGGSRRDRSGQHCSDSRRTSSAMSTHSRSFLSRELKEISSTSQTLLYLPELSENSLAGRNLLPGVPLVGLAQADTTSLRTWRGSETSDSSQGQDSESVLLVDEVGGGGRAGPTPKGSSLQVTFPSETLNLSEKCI", "test": "Magnus experiment using rabbit saphenous vein (relaxation of 40 mM KCl contraction)", "type": "cell-based", "description": "Magnus Experiment Using Rabbit Saphenous Vein\nInvestigation of agonistic activity to EP4 was carried out by an improved method of the method of Lydford et al. (S. J. Lydford et al., Br. J. Pharmacol. 117, 13-20 (1996)) using rabbit saphenous veins. That is, each rabbit was deeply anesthetized by administering pentobarbital (50 mg/kg) to auricular vein, and then sacrificed by bleeding by cutting carotid artery. Saphenous vein was carefully but quickly removed and transferred into Krebs solution (NaCl 118.1 mM, KCl 5.31 mM, MgSO4 1.01 mM, CaCl2 3.52 mM, NaH2PO4 1.09 mM, NaHCO3 25.0 mM, glucose 9.99 mM, pH 7.4) which was preliminarily saturated with 95% O2+5% CO2 mixed gas. The connective tissue and the fatty tissue of each saphenous vein were isolated using a scissors for ophthalmology to prepare a ring preparation with a width of about 4 mm. This ring preparation was mounted on a hook for blood vessels, and then suspended in a Magnus tube filled with Krebs solution aerated with 95% O2+5% CO2 mixed gas and kept at 37° C. The isometric tension of each blood vessel was recorded on a recorder through an isometric transducer. To each blood vessel, a base tension of 1.0 g was applied and the blood vessel tissue was stabilized for about 30 minutes until the baseline became stabilized. After the baseline became stable, the blood vessel was contracted with 40 mM KCl, and the shrinkage and washing were repeated until the contraction became stable. After the contraction with KCl became stable, a thromboxane antagonist S-145 (1000 nM) was applied previously and then cumulative application experiments of Compounds 1 to 7 were carried out. More specifically, the reactivity to PGE2 which was a positive control drug was measured, and after washing, the action of each compound was studied. The effectiveness of each drug was expressed in terms of the concentration (EC50) at which the rate of relaxation of the test drug to the contraction by 40 mM KCl was 50%. EC50 value was calculated by plotting logarithm of the concentration of each drug along the abscissa and plotting the rate of relaxation with respect to the contraction by 40 mM KCl along the ordinate, and by determining the concentration at which the height of contraction was 50% based on the linear area of the concentration-reaction curve in each experiment. [drawing 39]"}, "epilated rabbit models [1]": {"system": "epilated rabbit models", "test": "Hair-growth/generation test in epilated rabbits, subcutaneous, once a day from 2nd to 20th day", "type": "in vivo", "settings": "for Length of New Hair (mm) / Rate of Hair-generated Area (%): mean ± standard error", "description": "(§1) Hair-Growing or Hair-Generating Action\nThe test was carried out as follows. The hair on the back of each rabbit was removed with an electric clipper and evacream was applied for a short time to the back so as to epilate the back. After wiping the epilated region with water, test compound was subcutaneously administered to the back at a dose of 0.25 ml/kg (dissolved in 0.9% sodium chloride solution) once a day from the second day to 20th day after epilation. The state of generation of hair was observed and the length of the hair was measured."}, "[2]": {"target": "T1, human PGE2 receptor subtype EP4 (Homo sapiens, UniProt P35408)", "T1 construct": "expressed in transfected cells; host or cells: COS-7 cells, transient expression; membrane specimens", "T1 sequence (P35408 whole entry)": "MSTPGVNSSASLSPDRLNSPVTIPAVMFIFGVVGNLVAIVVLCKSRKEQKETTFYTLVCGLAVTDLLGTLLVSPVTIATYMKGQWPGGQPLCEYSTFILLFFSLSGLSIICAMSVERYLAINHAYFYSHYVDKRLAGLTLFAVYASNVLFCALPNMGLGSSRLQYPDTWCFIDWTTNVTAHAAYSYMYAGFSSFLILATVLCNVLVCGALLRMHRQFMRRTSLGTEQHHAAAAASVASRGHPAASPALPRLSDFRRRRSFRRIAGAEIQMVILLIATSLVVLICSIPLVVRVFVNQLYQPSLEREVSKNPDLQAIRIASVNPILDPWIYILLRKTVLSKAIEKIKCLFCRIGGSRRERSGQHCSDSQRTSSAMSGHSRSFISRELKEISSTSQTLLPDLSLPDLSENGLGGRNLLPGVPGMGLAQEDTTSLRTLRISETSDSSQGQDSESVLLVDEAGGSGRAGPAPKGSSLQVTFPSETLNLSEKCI", "test": "Receptor binding experiment using PGE2 receptor subtype-expressing cells (3H-PGE2 displacement, membrane fractions)", "settings": "human PGE2 receptor subtypes EP2, EP3, EP4", "description": "Receptor Binding Experiment Using PGE2 Receptor Subtype-expressing Cells\nThe compound of the Formula (I) described above was tested for its selective binding activity to EP4 receptor by using PGE2 receptor subtype-expressing cells.\nAccording to the reported method (Breyer,R. M. et al., J. Biol. Chem. 269,6163-6169(1994)), cloned human PGE2 receptor subtypes (EP3 and EP4) were transiently expressed by COS-7 cells. EP2 was stably expressed by CHO cells. These cells were prepared into membrane specimens. Each of the prepared membrane fractions (10 μg/tube) was incubated with a reaction solution containing ^3H—PGE2 at 30° C. for 1 hour. The reaction was terminated by iced buffer (10 mM MES(pH 6.0), 10 mM MgCl2, 1 mM EDTA), and the resultant was subjected to filtration by means of suction under reduced pressure to trap the bound ^3H-PGE2 on a glass filter (GF/C), followed by measurement of the radioactivity with a liquid scintillation counter.\nThe Kd value was determined from Scatchard plot according to the conventional method. Non-specific binding was determined in terms of the amount of bound radioactivity in the presence of an excess amount (5 μM) of non-labeled PGE2. […]\nThe dissociation constant Ki (nM) of Compound 1 was calculated according to the following equation: […]"}, "epilated rabbit models [3]": {"system": "epilated rabbit models", "test": "Hair-growth/generation test in young epilated rabbits (8 weeks old), subcutaneous, once a day from 2nd to 7th day", "type": "in vivo, New Zealand White rabbits", "settings": "young rabbits 8 weeks old", "description": "as §1\nThe test was carried out as follows. The hair on the back of each rabbit was removed and evacream was applied for a short time to the back so as to epilate the back. After wiping the epilated region with water, test compound was subcutaneously administered to the back at a dose of 0.25 ml/kg once a day from the second day to 7th day after epilation. The length of the hair was measured."}, "[4]": {"settings": "relaxation of contraction by 40 mM KCl, thromboxane antagonist S-145 (1000 nM) present, read-out: EC50 (nM), agonistic activity to EP4 receptor in rabbit saphenous vein relaxation reaction"}},
  "note": "Where two headings read alike, the source gives them in different places.",
  "data": [
    {"smiles": "O=C(O)CCc1cccc2c1OC1CC(O)C(C=CC(O)C(F)(F)C3CCCCC3)C21", "note": "(stereo not shown) [Compound 7]", "values": [
      {"measurement": "EC50", "setting": "EP4 Receptor", "result": 2, "unit": "nM"}
    ]},
    {"smiles": "CC(C)(Cc1ccccc1)C(O)C=CC1C(O)CC2Oc3c(CCC(=O)O)cccc3C21", "note": "(stereo not shown) [Compound 4]", "values": [
      {"measurement": "EC50", "setting": "EP4 Receptor", "result": 7, "unit": "nM"}
    ]},
    {"smiles": "CC(C)(C(O)C=CC1C(O)CC2Oc3c(OCC(=O)O)cccc3C21)C1CCCCC1", "note": "(stereo not shown) [Compound 5]", "values": [
      {"measurement": "EC50", "setting": "EP4 Receptor; [4]", "result": 26, "unit": "nM"}
    ]},
    {"smiles": "O=C(O)CCc1cccc2c1O[C@H]1C[C@@H](O)[C@H](/C=C/[C@@H](O)CC3CCCCC3)[C@@H]21", "note": "[Compound 1]", "values": [
      {"measurement": "Rate of Rabbits with 50% or More Hair-Generated Area", "setting": "epilated rabbit models [1]; 0.03 mg/kg s.c., 20th day", "result": "1/4"},
      {"measurement": "Length of New Hair (mm)", "setting": "epilated rabbit models [1]; 0.03 mg/kg s.c., 20th day", "result": "6.0 ± 0.6", "unit": "mm"},
      {"measurement": "Rate of Hair-generated Area (%)", "setting": "epilated rabbit models [1]; 0.03 mg/kg s.c., 20th day", "result": "15.8 ± 13.2", "unit": "%"},
      {"measurement": "Rate of Hair-generated Area (%)", "setting": "epilated rabbit models [1]; 0.1 mg/kg s.c., 20th day", "result": "48.8 ± 13.6", "unit": "%"},
      {"measurement": "Length of New Hair (mm)", "setting": "epilated rabbit models [1]; 0.1 mg/kg s.c., 20th day, p < 0.05 vs. control", "result": "7.3 ± 0.5", "unit": "mm"},
      {"measurement": "length of the new hair (in words)", "setting": "epilated rabbit models [1]; epilated rabbits, s.c. once a day", "result": "increased"},
      {"measurement": "selectivity to EP4 receptor subtype (binding abilities to other receptor subtypes are low)", "setting": "[2]", "result": "high selectivity"},
      {"measurement": "EC50", "setting": "EP4 Receptor", "result": 6, "unit": "nM"}
    ]},
    {"smiles": "O=C(O)C=Cc1cccc2c1OC1CC(O)C(C=CC(O)CC3CCCCC3)C21", "note": "(stereo not shown) [Compound 3]", "values": [
      {"measurement": "EC50", "setting": "EP4 Receptor", "result": 6, "unit": "nM"}
    ]},
    {"smiles": "OC(C=CC1C(O)CC2Oc3c(CCc4nnn[nH]4)cccc3C21)CC1CCCCC1", "note": "(stereo not shown) [Compound 2]", "values": [
      {"measurement": "Length of New Hair (mm)", "setting": "epilated rabbit models [3]; 0.03 mg/kg s.c., 7th day, mean ± standard error, p < 0.05 vs. control", "result": "11.7 ± 0.5", "unit": "mm"},
      {"measurement": "length of the new hair (in words)", "setting": "epilated rabbit models [3]; s.c. once a day", "result": "increased"},
      {"measurement": "EC50", "setting": "EP4 Receptor; [4]", "result": 3, "unit": "nM"}
    ]},
    {"smiles": "O=C(O)CSc1cccc2c1OC1CC(O)C(C=CC(O)CC3CCCCC3)C21", "note": "(stereo not shown) [Compound 6]", "values": [
      {"measurement": "EC50", "setting": "EP4 Receptor; [4]", "result": 33, "unit": "nM"}
    ]}
  ]
}
